The results in this text go back to paper PMC6627609, “Targeting Quorum Sensing: High-Throughput Screening to Identify Novel LsrK Inhibitors” (International Journal of Molecular Sciences, 2019).

One may read the inhibition as the change of the read-out against control, counted positive when it falls.

The assay deals with LsrK (Salmonella typhimurium, UniProt Q8ZKQ6). The assay can be described thus: biochemical. It counts as biochemical, S. typhimurium. Conditions: for Inhibition (%): 50 µM.

SMILES strings stand for the structures. Where a name gives a salt, the structure may show the parent alone.

LsrK, sequence (Q8ZKQ6 whole entry): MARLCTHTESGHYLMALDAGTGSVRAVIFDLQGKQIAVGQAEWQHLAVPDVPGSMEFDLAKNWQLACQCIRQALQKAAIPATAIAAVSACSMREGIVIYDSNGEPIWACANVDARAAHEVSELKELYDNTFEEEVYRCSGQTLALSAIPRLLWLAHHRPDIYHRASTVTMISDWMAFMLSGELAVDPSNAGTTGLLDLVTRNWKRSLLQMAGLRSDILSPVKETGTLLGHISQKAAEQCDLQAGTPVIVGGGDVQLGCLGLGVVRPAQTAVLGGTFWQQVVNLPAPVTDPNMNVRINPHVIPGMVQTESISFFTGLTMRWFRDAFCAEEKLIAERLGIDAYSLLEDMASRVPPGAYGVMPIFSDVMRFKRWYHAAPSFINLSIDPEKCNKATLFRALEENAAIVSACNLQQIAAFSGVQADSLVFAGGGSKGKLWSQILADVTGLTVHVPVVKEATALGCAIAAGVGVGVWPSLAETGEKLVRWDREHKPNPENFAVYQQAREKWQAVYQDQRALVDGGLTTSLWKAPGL

Take `COc1ccc(-c2oc3c(CC=C(C)C)c(O[C@@H]4O[C@H](CO)[C@@H](O)[C@H](O)[C@H]4O)cc(O)c3c(=O)c2O[C@@H]2O[C@@H](C)[C@H](O)[C@@H](O)[C@H]2O)cc1` [ICARIIN]: the inhibition at 50 µM stood at 36%.

Turning to `CCC(Cc1c(I)cc(I)c(N)c1I)C(=O)O` (centres unmarked) [IOPANIC ACID], the “Inhibition (%)” value came out at 16.

Consider `CC(C)[N+]1(C)[C@@H]2CC[C@H]1C[C@@H](OC(=O)C(CO)c1ccccc1)C2` (some centres unmarked) [IPRATROPIUM BROMIDE], for which the inhibition at 50 µM came out at 0%.

Turning to `CC(C)Oc1ccc2c(=O)c(-c3ccccc3)coc2c1` [IPRIFLAVONE], the inhibition at 50 µM came out at 2%.

For the molecule `CCCCC1=NC2(CCCC2)C(=O)N1Cc1ccc(-c2ccccc2-c2nnn[nH]2)cc1` [IRBESARTAN], the inhibition at 50 µM was found to be 10%.

Take `COc1c(O)cc(O)cc1O` [IRETOL]: the inhibition at 50 µM was found to be 1%.

Consider `COc1cc(-c2coc3cc(O[C@@H]4O[C@H](CO)[C@@H](O)[C@H](O)[C@H]4O)c(OC)c(O)c3c2=O)cc(O)c1OC` [IRIDIN], for which the inhibition at 50 µM came to 1%.

`COc1cc(-c2coc3cc(OCc4ccccc4)c(OC)c(O)c3c2=O)cc(O)c1OC` [IRIGENIN. 7-BENZYL ETHER]: the “Inhibition (%)” value came out at 2.

Regarding `O=c1c(-c2cc(O)c(O)c(O)c2)coc2cc(O)c(O)c(O)c12` [IRIGENOL], the inhibition at 50 µM worked out at 90%.

Turning to `CC(=O)Oc1cc(-c2coc3cc(OC(C)=O)c(OC(C)=O)c(OC(C)=O)c3c2=O)cc(OC(C)=O)c1OC(C)=O` [IRIGINOL HEXAACEATATE], the inhibition at 50 µM is 114%.

Take `CC(C)Nc1ncccn1` [ISAXONINE]: the inhibition at 50 µM worked out at 0%.

Take `CCC(NC(C)C)C(O)c1ccc(O)c(O)c1` (centres unmarked) [ISOETHARINE MESYLATE]: the inhibition at 50 µM amounted to 2%.

On to `C=C1CCC2C(CC2(C)C)C(=O)CCC1O` (centres unmarked) [ISOKOBUSONE], for which the inhibition at 50 µM came to 3%.

Take `C/C=C/c1ccc2c(c1)OCO2` [ISOSAFROLE]: the inhibition at 50 µM turned out to be 1%.

Take `O=[N+]([O-])O[C@@H]1CO[C@H]2[C@@H]1OC[C@@H]2O` [ISOSORBIDE MONONITRATE]: the inhibition at 50 µM came to 0%.

`CC1=C(/C=C/C(C)=C/C=C/C(C)=C\C(=O)O)C(C)(C)CCC1` [ISOTRETINON]: the “Inhibition (%)” value was 1.

Take `CC(COc1ccccc1)NC(C)C(O)c1ccc(O)cc1` (centres unmarked) [ISOXSUPRINE HYDROCHLORIDE]: the inhibition at 50 µM was found to be 2%.

`O=C(O)/C=C/C=C/c1ccccc1` [JUAREZIC ACID]: the inhibition at 50 µM was 1%.

Consider `O=C1C=CC(=O)c2c(O)cccc21` [JUGLONE], for which the inhibition at 50 µM is 88%.

Regarding `O=c1c(O)c(-c2ccc(O)cc2)oc2cc(O)cc(O)c12` [KAEMPFEROL], the inhibition at 50 µM was 0%.

On to `C[C@H]1O[C@H](OC2[C@@H](O)[C@@H](O)C(O)[C@H](O)[C@H]2O)[C@@H](N)C[C@@H]1N=C(N)C(=O)O.Cl` (some centres unmarked) [KASUGAMYCIN HYDROCHLORIDE], for which the “Inhibition (%)” value was determined as 1.

Consider `COC1=CC(=O)O[C@@H](/C=C/c2ccccc2)C1` [KAWAIN], for which the inhibition at 50 µM was found to be 0%.

As for `O=C(c1ccccc1)c1ccc2n1CCC2C(=O)O` (centres unmarked) [KETOROLAC TROMETHAMINE], the inhibition at 50 µM came out at 0%.

With `CN1CCC(=C2c3ccccc3CC(=O)c3sccc32)CC1` [KETOTIFEN FUMARATE], the inhibition at 50 µM is 1%.

`OC[C@H]1O[C@@H](n2cnc3c(NCc4ccco4)ncnc32)[C@H](O)[C@@H]1O` [KINETIN RIBOSIDE]: the inhibition at 50 µM came out at 0%.

As for `CC1(C)C[C@@H]2C(=O)CC[C@H]3O[C@]3(C)CC[C@H]21` [KOBUSONE], the inhibition at 50 µM is 1%.

For the molecule `COc1ccc(-c2coc3cc(O)ccc3c2=O)c(O)c1O` [KOPARIN], the inhibition at 50 µM turned out to be 118%.

With `CCCCS(=N)(=O)CCC(N)C(=O)O` [L-BUTHIONINE SULFOXIMINE], the “Inhibition (%)” value was found to be 20.

`CC(=O)O[C@H]1CC[C@]2(C)C3=C(CC[C@H]2C1(C)C)[C@]1(C)CC[C@H]([C@H](C)CCC=C(C)C)[C@@]1(C)CC3` [LANOSTEROL ACETATE]: the “Inhibition (%)” value turned out to be 1.

On to `Cc1c(OCC(F)(F)F)ccnc1C[S+]([O-])c1nc2ccccc2[nH]1` (centres unmarked) [LANSOPRAZOLE], for which the inhibition at 50 µM was 33%.

As to `CC(C)=CCC1=C(O)C(=O)c2ccccc2C1=O` [LAPACHOL], the inhibition at 50 µM was determined as 1%.

Take `Cc1occc(=O)c1O` [LARIXINIC ACID]: the “Inhibition (%)” value was 1.

In the case of `C=C[C@@](C)(O)CC[C@H]1C(=C)C[C@H](OC(C)=O)[C@H]2C(C)(C)CCC[C@]12C` [LARIXOL ACETATE], the “Inhibition (%)” value stood at 3.

With `C=C[C@@](C)(O)CC[C@H]1C(=C)C[C@H](O)[C@H]2C(C)(C)CCC[C@]12C` [LARIXOL], the “Inhibition (%)” value is 1.

`Cc1cc(OC(=O)c2c(C)cc(O)cc2O)cc(O)c1C(=O)O` [LECANORIC ACID]: the inhibition at 50 µM was 0%.

As to `COC(=O)c1c(C)c2c(c(C)c1O)OC(=O)c1c(C)c(Cl)c(O)c(Cl)c1O2` [LEOIDIN], the inhibition at 50 µM came out at 83%.

Take `Nc1nc2c(c(=O)[nH]1)N(C=O)C(CNc1ccc(C(=O)N[C@@H](CCC(=O)O)C(=O)O)cc1)CN2` (some centres unmarked) [LEUCOVORIN CALCIUM]: the inhibition at 50 µM amounted to 5%.

`CC(C)(C)NC[C@H](O)c1ccc(O)c(CO)c1` [LEVALBUTEROL HYDROCHLORIDE]: the inhibition at 50 µM came to 8%.

In the case of `c1ccc([C@H]2CN3CCSC3=N2)cc1` [LEVAMISOLE HYDROCHLORIDE], the inhibition at 50 µM came to 1%.

Turning to `N[C@@H](Cc1ccc(O)c(O)c1)C(=O)O` [LEVODOPA], the inhibition at 50 µM was 77%.

For `C[C@H](N)[C@H](O)c1ccc(O)c(O)c1` [LEVONORDEFRIN], the inhibition at 50 µM stood at 123%.

`CCC[C@@H]1C[C@@H](C(=O)N[C@@H]([C@H]2O[C@H](SC)[C@H](O)[C@@H](O)[C@H]2O)[C@@H](C)O)N(C)C1` [LINCOMYCIN HYDROCHLORIDE]: the inhibition at 50 µM turned out to be 0%.

For the molecule `CCCCCc1c2c(cc(O)c1C(=O)O)OC(=O)c1c(cc(OC)cc1C(=O)CCCC)O2` [LOBARIC ACID], the inhibition at 50 µM stood at 98%.

Consider `CN1[C@@H](CC(=O)c2ccccc2)CCC[C@H]1C[C@H](O)c1ccccc1` [LOBELINE HYDROCHLORIDE], for which the inhibition at 50 µM was 1%.

For the molecule `CCn1cc(C(=O)O)c(=O)c2cc(F)c(N3CCNC(C)C3)c(F)c21` (centres unmarked) [LOMEFLOXACIN HYDROCHLORIDE], the inhibition at 50 µM amounted to 0%.

For the molecule `CCOC(=O)N1CCC(=C2c3ccc(Cl)cc3CCc3cccnc32)CC1` [LORATADINE], the inhibition at 50 µM came out at 2%.

On to `O=C(NC(=O)c1c(F)cccc1F)Nc1cc(Cl)c(OC(F)(F)C(F)C(F)(F)F)cc1Cl` (centres unmarked) [LUFENURON], for which the inhibition at 50 µM was 2%.

On to `O=C(O)CCC1NCC2CC1CN1CCCCC21` (centres unmarked) [LUPANYL ACID HYDROCHLORIDE], for which the inhibition at 50 µM stood at 1%.

For the molecule `NCc1ccc(S(N)(=O)=O)cc1` [MAFENIDE HYDROCHLORIDE], the inhibition at 50 µM amounted to 1%.

As for `O=c1c2cc(O)c(O)cc2oc2cc(O)c([C@@H]3O[C@H](CO)[C@@H](O)[C@H](O)[C@H]3O)c(O)c12` [MANGIFERIN], the inhibition at 50 µM amounted to 14%.

In the case of `COC(=O)Nc1nc2ccc(C(=O)c3ccccc3)cc2[nH]1` [MEBENDAZOLE], the inhibition at 50 µM was determined as 1%.

For `CCN(CCCCOC(=O)c1ccc(OC)c(OC)c1)C(C)Cc1ccc(OC)cc1` (centres unmarked) [MEBEVERINE HYDROCHLORIDE], the inhibition at 50 µM was determined as 1%.

As for `Cc1ccc(Cl)c(Nc2ccccc2C(=O)O)c1Cl` [MECLOFENAMATE SODIUM], the inhibition at 50 µM came to 6%.
